From paper PMC6154534, “New Benzimidazole-1,2,4-Triazole Hybrid Compounds: Synthesis, Anticandidal Activity and Cytotoxicity Evaluation” (Molecules : A Journal of Synthetic Chemistry and Natural …, 2017)
Converted amounts (≈) assume the structure as drawn.

Columns and labels:
Type in all cases: cell-based
C. albicans = assay: Fluorescence microscopy (Live/Dead BacLight, SYTO-9 / PI); conditions: 3.12 µg/mL (4 × MIC50), 2 h
Excerpt: Ergosterol is the major fungal membrane sterol that regulates membrane fluidity, plasma membrane biogenesis and functions. […] It is known that propidium iodide (PI) enters only cells with damaged membranes, while SYTO-9 marks cells with both damaged and unaffected membranes. […] Consequently, fluorescence microscopic experiments supported the findings observed in inhibition of biosynthesis of ergosterol, which is a vital sterol regulating membrane functions. The Live/Dead BacLight viability kit from Molecular Probes, Inc. (Eugene, OR, USA) was used as reported by Nobman et al.. In this assay, the SYTO-9 and PI stains are in competition to bind to fungal nucleic acid. PI enters only cells with damaged membranes, while SYTO-9 marks cells with both damaged and unaffected membranes. A culture of C. albicans was grownup to mid-log phase in 20 mL of SDB. Twenty milliliters of the yeast culture was divided into two equal parts. […] The second culture was incubated under same conditions without a compound. Both cultures were centrifuged at 3000 rpm for 10 min. and then cell pellets were incubated with PI and SYTO9 at 40 °C for 30 min. The stained yeast cultures were observed under a fluorescence microscope (Carl-Zeis, Axio Scope.A1, Göttingen, Germany) using 100× oil-immersion objective.

[1] = tested on: ergosterol biosynthesis in C. albicans (ATCC 24433); assay: Quantification of ergosterol level by LC-MS-MS; conditions: 0.78, 1.56 and 3.12 µg/mL, 16 h, negative control = 100%
Excerpt: The most of therapies, planned to treat fungal infections, target in the ergosterol biosynthesis pathway or its end product, ergosterol, a membrane sterol that is unique to fungi. It is the main sterol, and thus is essential for growth and normal membrane function of fungal cell. Besides serving as a bioregulator of membrane fluidity, asymmetry and integrity, it contributes to proper function of membrane-bound enzymes. […] Total intracellular sterols were extracted as reported by Breivik and Owades. […] Ergosterol standard (Product No. 45480, Sigma-Aldrich, Darmstadt, Germany) was used for quantification of ergosterol in both inhibitor-free (negative control) and inhibitor including samples. Ergosterol quantity in negative control samples was regarded as 100%. All concentrations were analyzed in quadruplicate, and the results were expressed as mean ± standard deviation (SD) (Figure 2).
Total intracellular sterols were extracted as reported by Breivik and Owades with slight modifications. […] The cultures were incubated for 16 h with shaking at 35 °C. […] Ergosterol quantity in negative control samples was regarded as 100%. All concentrations were analyzed in quadruplicate, and the results were expressed as mean ± standard deviation (SD).

C. albicans (ATCC 24433) = assay: Anticandidal broth microdilution (EUCAST EDef 7.1), resazurin fluorometric readout; conditions: Candida albicans, ATCC24433; ATCC 24433, RPMI pH 7, 24 h incubation
Protocol: (§1) Synthesized compounds (5a-5ad) were evaluated for anticandidal activity against C. albicans (ATCC 24433), C. krusei (ATCC 6258), C. parapsilosis (ATCC 22019) and C. [NT] 90030). MIC50 values were evaluated via fluorometric measurements, using resazurin solution [56, 57]. […] [NT] 90030). MIC readings were carried out twice for each chemical agent. The yeasts were maintained in RPMI after overnight incubation at 37 °C. The inocula of test microorganisms adjusted to match the turbidity of a MacFarland 0.5 standard tube as determined with a spectrophotometer and the final inoculum size was 0.5-2.5 × 10^5 cfu/mL for antifungal assay. Testing was carried out in RPMI at pH = 7 and the two-fold serial dilutions technique was applied. The last well on the microplates containing only inoculated broth was kept as controls and the last well with no growth of microorganism was recorded to represent the MIC50 expressed in μg/mL. For the antifungal assays, the compounds were dissolved in DMSO. […] The completed plates were incubated for 24 h. At the end of the incubation, resazurin (20 μg/mL) was added into each well to control whether the growth in wells. Then, plates were allowed to incubate for 2 h. MIC50 values were determined using a microplate reader at […].

C. krusei (ATCC 6258) = assay: as above; conditions: Pichia kudriavzevii, ATCC6258; ATCC 6258, RPMI pH 7, 24 h incubation
Protocol: as §1

[2] = tested on: C. parapsilosis (ATCC 22019); assay: as above; conditions: Lodderomyces parapsilosis, ATCC22019; ATCC 22019, RPMI pH 7, 24 h incubation; read-out: MIC50 C. parapsilopsis
Protocol: as §1

C. glabrata (ATCC 90030) = assay: as above; conditions: Nakaseomyces glabratus, ATCC90030; ATCC 90030, RPMI pH 7, 24 h incubation
Protocol: as §1

[3] = tested on: NIH/3T3 mouse embryonic fibroblast cell line (ATCC CRL1658); assay: MTT cytotoxicity assay; conditions: NIH3T3, tested 800 to 0.78 µg/mL, read-out: IC50 on NIH/3T3 mouse embryonic fibroblast cell lines
Excerpt: Toxicity is a key cause of failure at all steps of the new drug development process. The most part of safety-related problems occur at preclinical phases to predict preclinical safety liabilities earlier in the new drug development process. This approach allows to design and/or selection of better drug candidates that have more potentials to be marketed drugs. […] Cytotoxicities of selected compounds (5m, 5o, 5r, 5w, 5y, 5ab, and 5ad), displaying strong anticandidal activity and good predicted pharmacokinetics, were determined against NIH/3T3 mouse embryonic fibroblast cell lines (ATCC CRL1658).
Cytotoxicity was tested using the NIH/3T3 mouse embryonic fibroblast cell line (ATCC® CRL-1658™, London, UK). NIH/3T3 cells were incubated according to the supplier’s recommendations and they were seeded at 1 × 10^4 cells into each well of 96-well plates. MTT assay was performed as previously described. The compounds were tested in a concentration range of 800 µg/mL and 0.78 µg/mL concentrations. Percent inhibition was calculated for each concentration according to the formula below, and IC50 values were determined by plotting a concentration–response curve of inhibition percent versus compound concentrations tested.

Candida species = assay: Anticandidal broth microdilution, results summarised over all strains; conditions: summary over all four Candida strains
Protocol: as §1

MIC50 (C. albicans (ATCC 24433)): 0.78 µg/mL (≈ 1.69 µM)
MIC50 (C. krusei (ATCC 6258)): 0.78 µg/mL (≈ 1.69 µM)
MIC50 [2]: 0.78 µg/mL (≈ 1.69 µM)
MIC50 (C. glabrata (ATCC 90030)): 0.78 µg/mL (≈ 1.69 µM)
MIC50 (Candida species; Candida, read-out: MIC50 against Candida species): 0.78 µg/mL (≈ 1.69 µM)
MIC50 against Candida species (Candida species): 0.78 to 1.56 µg/mL
Compound: Cn1c(SCC(=O)c2ccc(F)cc2)nnc1-c1ccc(-c2nc3ccc(F)cc3[nH]2)cc1 [Compound 5w, 2-((5-(4-(6-Fluoro-1H-benzimidazol-2-yl)phenyl)-4-methyl-4H-1,2,4-triazol-3-yl)thio)-1-(4-fluorophenyl)ethan-1-one]
effect on C. albicans cell membrane (PI penetration) (C. albicans): membrane damaging effect
level of ergosterol in C. albicans (in words) [1]: significantly decreased the level of ergosterol at all tested concentrations
IC50 [3]: 65.3 ± 2.94 µg/mL (≈ 141 µM)
